According to patent publication EP1964555A1, “PHARMACEUTICAL CO[…] INHIBIT THE REUPTAKE OF NORADRENALINE, DOPAMINE AND SEROTONIN, WHICH ARE COMBINED WITH AN AMINO ACID FOR THE TREATMENT OF OBESITY AND OVERWEIGHT” (Espinosa Abdala, Leopoldo de Jesús, priority 2005, dated 2007):

Experiments:
[1] = Example 2: randomized, double-blind, crossover study in patients with severe obesity and dyslipidemia; assay type: in vivo; details: 4 weeks per treatment
Experimental: A randomized, double-blind and crossover study was made in order to assess the reliability and effectiveness of the combination Sibutramine-Carnitine in patients with obesity and/or overweight suffering from dyslipidemia. 80 individuals were included in the study with a BMI higher than 35 kg/m^2 diagnosed with severe obesity, with alteration in the profile of lipids which total cholesterol figures was higher than 200 mg/dl.
Combined Sibutramine-carnitine was administered for 4 weeks and subsequently sibutramine alone and carnitine alone for another 4 weeks.

[2] = cited from earlier work; for plasma rates: after administration of indicated Sibutramine therapeutic doses; for time for plasma concentrations to reach the stable state: during treatment; for detection in urine: in vivo; for maximum plasma concentration [Tmax]: time after administration; for effect of food on Tmax / effect of food on maximum concentrations: with food
human plasmatic proteins = details: plasma; cited from earlier work
[3] = single dose, within a 15-day period

Compound	reduction of BMI ([1]; BMI higher than 35 kg/m^2, total cholesterol higher than 200 mg/dl, combination compared to sibutramine alone)	plasma rates [2] [%]	time for plasma concentrations to reach the stable state [2]	detection in urine [2]	maximum plasma concentration [Tmax] [2] [h]	effect of food on Tmax [2]	effect of food on maximum concentrations [2]	attachment to human plasmatic proteins (human plasmatic proteins) [%]	cholesterol and triglycerides levels ([1]; compared to the admission visit)	share expelled through urine [2, 3] [%]	share of dose expelled through urine and feces [2, 3]
C[N+](C)(C)CC(O)CC(=O)[O-] (stereo not shown) [carnitine, Carnitine]	no significant differences										
CC(C)CC(N)C1(c2ccc(Cl)cc2)CCC1 (stereo not shown) [M2, di-desmetil-sibutramina]		12	four	not detected	~4	delay	decreases	94			
CC(C)CC(N(C)C)C1(c2ccc(Cl)cc2)CCC1 (stereo not shown) [Sibutramine]		3		not detected	1.2			97	frank progressive reduction	77	About 85%
CNC(CC(C)C)C1(c2ccc(Cl)cc2)CCC1 (stereo not shown) [M1, mono-desmetilsibutramina]		6	four	not detected	~3	delay	decreases	94			
